Patent US4820712A, “Sparsomycin (SC-RS) compounds having antitumor activity, a process for their preparation and pharmaceutical compositions containing sparsomycin (SC-RS) compounds” (priority 1986, dated 1989)
pIC50: −log10 of the molar value.

What was measured:
P388 leukemia = experiment: in vivo antitumor assay, P388 leukemia; parameters: species or system CDF1 mice
Procedure: (§1) The antitumor activity of the present compounds has also been investigated by in vivo assays. In the assays, mice were treated for nine days in succession, starting at 24 hours after the time of tumor implant.
(§2) The results are shown in tables 4, 5 and 6 and represent the number of tumor-bearing mice surviving after administration of optimal doses of the test compound, expressed as a treatment/control (T/C×100%) ratio. In the tables, information is provided with respect to the sex, dose, weight loss of treated animals compared to control animals, and the number of survivors in groups of 6 mice.

[1] = test system: RC (renal cell) carcinoma; experiment: in vivo antitumor assay, RC (renal cell) carcinoma; parameters: species or system CDF1 mice
Procedure: as §1, §2

[2] = test system: ribosomes from E. coli MRE600 (peptidyl transferase activity); experiment: polyphenylalanine synthesis assay, E. coli ribosomes; format: biochemical; conditions: concentration giving 50% inhibition relative to control; 37° C., 30 min; read-out: ED50 polyPhe synthesis E. coli
Procedure: The peptidyl transferase activity was measured by the polyphenylalanine synthesis assay (Nirenberg and Matthei, Proc. Natl. Acad. Sci. USA 47 (1961) 1588), the fragment reaction (Monro, Methods Enzymol. 20 (1971) 472) and the puromycin reaction. In all the in vitro tests, i.e. polyPhe synthesis, fragment reaction and puromycin reaction, ribosomes from E. coli MRE600 and S. cerevisiae Y166 were used. The reaction mixture for polyphenylalanine synthesis was slightly different for E. coli and S. cerevisiae.
E. coli: The reaction mixture (50 μl) contained 50 mM Tris-HCl pH 7.6, 15 mM MgCl2, 90 mM KCl, 15 mM β-mercapto ethanol, 1 mM GTP, 10 mM ATP, 0.2 mg/ml of polyuridylic acid, 1.5 mg/ml tRNA, 0.3 μM of ribosomes, 2.5 mg/ml of phosphoenol pyruvate, 20 μg/ml of pyruvate kinase, the required concentration of sparsomycin or its analogue and 5 μl of supernatant fraction S-100. Subsequently, [^3 H]phenylalanine, 30 μM (about 60 cpm/pmol) was added to start the reaction. Incubation was at 37° C. for 30 min. The reaction was stopped by the addition of 1 ml of 10% TCA and the samples were filtered through glass fiber filters. The filters were washed with 10 ml of cold 10% TCA, dried and counted for radioactivity.
The concentration of sparsomycin or an analog giving 50% inhibition of the protein synthesis relative to the control is given in ED50.

whole reticulocytes = conditions: attributed to being unable to penetrate these cells; cited from earlier work
[3] = clinical tests (Cancer. Chemother. Rep. (1969), 43, 29); cited from earlier work
[4] = female mice, ip daily x9, dose mg/kg: 2a 3.4
[5] = female mice, ip daily x9, dose mg/kg: 2a 2.3
[6] = male mice, ip daily x9, optimal dose mg/kg: sparsomycin 0.125, n-octyl 20.0, benzyl 2.7, 2a 1.1
[7] = male mice, ip daily x9, dose mg/kg: sparsomycin 0.125, n-octyl 20.0, benzyl 2.7, 2a 1.1

Compound	T/C (survival, treatment/control x 100%) (P388 leukemia; female mice, ip daily x9, optimal dose mg/kg: 2a 3.4) [%]	cures (survivors in groups of 6 mice) (P388 leukemia; [4])	weight loss (T - C) (P388 leukemia; [4]) [g]	T/C (survival, treatment/control x 100%) ([1]; female mice, ip daily x9, optimal dose mg/kg: 2a 2.3) [%]	cures (survivors in groups of 6 mice) [1, 5]	weight loss (T - C) [1, 5] [g]	T/C (survival, treatment/control x 100%) [1, 6] [%]	cures (survivors in groups of 6 mice) [1, 7]	weight loss (T - C) [1, 7] [g]	pIC50 [2]	T/C (survival, treatment/control x 100%) (P388 leukemia; male mice, ip daily x9, optimal dose mg/kg: sparsomycin 0.125, n-octyl 22.5, benzyl 2.0, 2e 20.0) [%]	cures (survivors in groups of 6 mice) (P388 leukemia; male mice, ip daily x9, dose mg/kg: sparsomycin 0.125, n-octyl 22.5, benzyl 2.0, 2e 20.0)	weight loss (T - C) (P388 leukemia; mouse, in vivo, ip) [g]	weight loss (T - C) ([1]; mouse, in vivo, ip) [g]	activity against whole reticulocytes (whole reticulocytes)	toxicity revealed in clinical tests [3]
CSC[S@+]([O-])C[C@H](C)NC(=O)/C=C/c1c(C)[nH]c(=O)[nH]c1=O [2a, (Sc Rs)-1-(methylthiomethyl)sulfinyl-2-[β-(6-methyl-5-uracilyl)acrylamido]-propane]	170	0/6	-2.3	300	0/6	-1.5	304	0/6	-0.6	4.82	–	–	–	–	–	–
CSC[S@+]([O-])C[C@H](CO)NC(=O)/C=C/c1c(C)[nH]c(=O)[nH]c1=O [Sparsomycin]	–	–	–	–	–	–	100	0/6	–	5.07	88	0/6	-3.0	-1.7	not active	eye toxicity
